Where two headings read alike, the source gives them in different places. Values belong to the molecule of their own block, whether it stands above or below them.
Target: T1, CFTR (Homo sapiens, UniProt P13569, DEL508-508)
T1 construct: endogenous in cells; host or cells: primary human bronchial epithelial cells from CF subjects (F508del/MF-HBE), differentiated at air-liquid interface
Assay: HBE assay: Ussing chamber assay of CFTR-mediated short-circuit currents
Type: cell-based
How it was run: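 CFTR-mediated Isc (μA/cm²) equals the peak response to apical 20 μM forskolin minus the residual after a 20 μM each BPO/GlyH-101/CFTR inhibitor 172 cocktail, recorded in Ussing chambers at Vhold 0 mV, 37 °C, pH 7.4, with 30 μM apical amiloride. Cells were F508del/MF HBE cultures preincubated 18-24 h with corrector (concentration range or 10 μM) plus 1 μM ivacaftor in 20% human serum.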

[1] = HBE assay, read-out: HBE Max activity (%)
[2] = Table 10, read-out: HBE Max activity (%)
[3] = Table 11, read-out: HBE Max Activity (%)
[4] = Table 13, read-out: HBE Max Activity (%)
[5] = HBE assay, 10 μM, read-out: HBE Activity at 10 μM (%)
[6] = Table 12, read-out: HBE Max Activity (%)
[7] = Table 10, at 10 μM, read-out: HBE activity at 10 (μM) (%)
[8] = Table 13, at 10 μM, read-out: HBE Activity at 10 μM (%)
[9] = Table 12, at 10 μM, read-out: HBE Activity at 10 μM (%)

T1 sequence (P13569 with tags, fused parts or gaps DEL508-508): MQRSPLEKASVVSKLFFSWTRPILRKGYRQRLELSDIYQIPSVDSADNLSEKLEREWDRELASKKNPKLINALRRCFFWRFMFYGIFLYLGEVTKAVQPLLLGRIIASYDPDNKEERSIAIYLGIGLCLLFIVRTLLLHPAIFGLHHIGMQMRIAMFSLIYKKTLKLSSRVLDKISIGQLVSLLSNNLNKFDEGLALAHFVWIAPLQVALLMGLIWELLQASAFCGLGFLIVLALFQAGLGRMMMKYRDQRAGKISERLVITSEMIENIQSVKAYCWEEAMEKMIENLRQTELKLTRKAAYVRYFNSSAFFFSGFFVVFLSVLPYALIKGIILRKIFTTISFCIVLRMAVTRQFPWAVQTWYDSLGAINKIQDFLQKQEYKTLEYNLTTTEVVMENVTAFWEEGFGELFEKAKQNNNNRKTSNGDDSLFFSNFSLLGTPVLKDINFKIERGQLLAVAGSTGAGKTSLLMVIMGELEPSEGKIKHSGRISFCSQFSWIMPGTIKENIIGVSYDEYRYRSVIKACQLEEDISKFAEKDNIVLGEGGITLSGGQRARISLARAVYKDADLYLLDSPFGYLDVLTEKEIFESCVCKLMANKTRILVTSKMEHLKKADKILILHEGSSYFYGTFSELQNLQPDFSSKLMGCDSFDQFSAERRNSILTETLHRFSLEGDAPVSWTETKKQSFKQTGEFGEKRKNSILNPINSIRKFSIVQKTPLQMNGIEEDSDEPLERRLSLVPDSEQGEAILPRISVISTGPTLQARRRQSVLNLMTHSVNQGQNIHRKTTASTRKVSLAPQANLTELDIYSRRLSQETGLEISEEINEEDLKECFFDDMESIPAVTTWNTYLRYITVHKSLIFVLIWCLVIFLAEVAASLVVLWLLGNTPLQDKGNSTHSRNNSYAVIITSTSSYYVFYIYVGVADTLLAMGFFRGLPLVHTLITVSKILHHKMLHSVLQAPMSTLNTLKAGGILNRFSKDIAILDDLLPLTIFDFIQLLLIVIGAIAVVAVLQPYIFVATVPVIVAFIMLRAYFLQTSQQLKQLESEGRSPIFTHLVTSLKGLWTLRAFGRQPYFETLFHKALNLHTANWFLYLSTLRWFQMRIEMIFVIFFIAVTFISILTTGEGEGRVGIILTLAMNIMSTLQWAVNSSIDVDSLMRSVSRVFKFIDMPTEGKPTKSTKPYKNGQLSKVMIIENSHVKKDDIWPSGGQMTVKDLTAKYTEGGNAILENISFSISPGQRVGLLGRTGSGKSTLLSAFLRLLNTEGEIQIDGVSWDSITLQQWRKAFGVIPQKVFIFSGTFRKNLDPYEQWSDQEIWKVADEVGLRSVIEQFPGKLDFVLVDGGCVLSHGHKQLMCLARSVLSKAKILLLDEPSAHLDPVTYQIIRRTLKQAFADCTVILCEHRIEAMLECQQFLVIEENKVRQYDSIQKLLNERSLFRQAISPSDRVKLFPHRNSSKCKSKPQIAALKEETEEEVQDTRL

Compound: Cc1cccc(C)c1-c1cc2nc(n1)NS(=O)(=O)c1cccc(c1)C(=O)N(Cc1cccc(-c3c(C)n[nH]c3C)c1)[C@H](CC(C)(C)C)CO2 [Compound 313]
EC50 (Table 10, read-out: HBE EC50): < 1 µM | Emax [2]: > 60%

Compound: COc1cnc(CN2C(=O)c3cccc(c3)S(=O)(=O)Nc3nc(cc(-c4c(C)cccc4C)n3)OC[C@H]2CC(C)(C)C)nc1C [Compound 611]
EC50 (Table 11, read-out: HBE EC50): < 1 µM | Emax [3]: > 60%

Compound: COCCN(C)c1nccc(CN2C(=O)c3cccc(c3)S(=O)(=O)Nc3nc(cc(-c4c(C)cccc4C)n3)OC[C@H]2CC(C)(C)C)n1 [Compound 600]
EC50 (Table 11, read-out: HBE EC50): < 1 µM | Emax [3]: > 60%

Compound: Cc1cccc(C)c1-c1cc2nc(n1)NS(=O)(=O)c1cccc(c1)C(=O)N(Cc1ncc(OC(C)C)cn1)[C@H](CC(C)(C)C(F)(F)F)CO2 [Compound 1121]
EC50 (Table 13, read-out: HBE EC50): < 1 µM | Emax [4]: > 60%

Compound: Cc1cccc(C)c1-c1cc2nc(n1)NS(=O)(=O)c1cccc(c1)C(=O)N(Cc1cncc(N3CCC[C@@H]3C3CCOCC3)n1)[C@H](CC(C)(C)C)CO2 [Compound 1534]
activation at 10 µM [5]: > 60%

Compound: Cc1cccc(C)c1-c1cc2nc(n1)NS(=O)(=O)c1cccc(c1)C(=O)N(Cc1ncc(N3CCC(C)(C)C3)cn1)[C@H](CC1CC1)CO2 [Compound 1464]
EC50 (HBE assay, read-out: HBE EC50): < 1 µM | Emax [1]: > 60%

Compound: Cc1cccc(C)c1-c1cc2nc(n1)NS(=O)(=O)c1cccc(c1)C(=O)N(Cc1cccc(N3CCC34CCCC4)n1)[C@H](CC(C)(C)C)CO2 [Compound 565]
EC50 (Table 12, read-out: HBE EC50): < 1 µM | Emax [6]: > 60%

Compound: Cc1cccc(C)c1-c1cc2nc(n1)NS(=O)(=O)c1cccc(c1)C(=O)N(CC(=O)N(C)C1CCOCC1)[C@H](CC(C)(C)C)CO2 [Compound 182]
activation at 10 µM [8]: > 600%

Compound: Cc1cccc(C)c1-c1cc2nc(n1)NS(=O)(=O)c1cccc(c1)C(=O)N(Cc1ccc(N3CCC(C(=O)O)CC3)cn1)[C@H](CC(C)(C)C)CO2 [Compound 251]
activation at 10 µM [8]: 30 to 60%

Compound: Cc1cccc(C)c1-c1cc2nc(n1)NS(=O)(=O)c1cccc(c1)C(=O)N(CC(=O)N1CCCCC1c1ccc(F)cc1)[C@H](CC(C)(C)C)CO2 (stereo partly drawn) [Compound 177]
activation at 10 µM [8]: > 600%

Compound: Cc1cc(NC(C)C)cnc1CN1C(=O)c2cccc(c2)S(=O)(=O)Nc2nc(cc(-c3c(C)cccc3C)n2)OC[C@H]1CC(C)(C)C [Compound 1373]
EC50 (HBE assay, read-out: HBE EC50): < 1 µM | Emax [1]: > 60%

Compound: Cc1cccc(C)c1-c1cc2nc(n1)NS(=O)(=O)c1cccc(c1)C(=O)N(Cc1cncc(N3CCC[C@H]3C(C)C)n1)[C@H](CC1CC1)CO2 [Compound 1499]
activation at 10 µM [5]: > 60% | EC50 (HBE assay, read-out: HBE EC50): < 1 µM | Emax [1]: > 60%

Compound: COc1cccc(C)c1-c1cc2nc(n1)NS(=O)(=O)c1cccc(c1)C(=O)N(Cc1ncc(CC(C)C)cn1)[C@H](CC(C)(C)C)CO2 [Compound 576]
activation at 10 µM [9]: > 600%

Compound: Cc1cc(N(C)C)nc(CN2C(=O)c3cccc(c3)S(=O)(=O)Nc3nc(cc(-c4c(C)cccc4C)n3)OC[C@H]2CC(C)(C)C)n1 [Compound 324]
activation at 10 µM [9]: > 600%

Compound: Cc1cccc(C)c1-c1cc2nc(n1)NS(=O)(=O)c1cccc(c1)C(=O)N(Cc1cccc(Oc3ccccc3)n1)[C@H](CC(C)(C)C)CO2 [Compound 126, (11R)-6-(2,6-Dimethylphenyl)-11-(2,2-dimethylpropyl)-2,2-dioxo-12-[(6-phenoxy-2-pyridyl)methyl]-9-oxa-2λ^6-thia-3,5,12,19-tetrazatricyclo[12.3.1.14,8]nonadeca-1(18),4(19),5,7,14,16-hexaen-13-one]
EC50 (HBE EC50 (μM), Table 10): < 1 µM | Emax (read-out: HBE Max activity (%)): > 60%

Compound: Cc1cccc(C)c1-c1cc2nc(n1)NS(=O)(=O)c1cccc(c1)C(=O)N(Cc1ccc3c(n1)N1CCOCC1C(C)C3)[C@H](CC(C)(C)C)CO2 (stereo partly drawn) [Compound 1154]
EC50 (Table 13, read-out: HBE EC50): < 1 µM | Emax [4]: > 60%

Compound: Cc1cccc(C)c1-c1cc2nc(n1)NS(=O)(=O)c1cccc(c1)C(=O)N(Cc1cnc3ccccn13)[C@H](CC(C)(C)C)CO2 [Compound 879]
activation at 10 µM [9]: > 600%

Other lines, results leading:

EC50 (HBE assay, read-out: HBE EC50): < 1 µM | Emax [1]: > 60%
Compound: COC(C)(C)CN(C)c1cncc(CN2C(=O)c3cccc(c3)S(=O)(=O)Nc3nc(cc(-c4c(C)cccc4C)n3)OC[C@H]2CC(C)(C)C)n1 [Compound 1491]

EC50 (Table 10, read-out: HBE EC50): < 1 µM | Emax [2]: > 60%
Compound: Cc1cccc(C)c1-c1cc2nc(n1)NS(=O)(=O)c1cccc(c1)C(=O)N(Cc1ccc(Cc3nccs3)cc1)[C@H](CC(C)(C)C)CO2 [Compound 296]

EC50 (Table 13, read-out: HBE EC50): < 1 µM | Emax [4]: > 60%
Compound: Cc1ccc(F)c(CN2C(=O)c3cccc(c3)S(=O)(=O)Nc3nc(cc(-c4c(C)cccc4C)n3)OC[C@H]2CC(C)(C)C)n1 [Compound 1113]

Emax [2]: > 60%
Compound: Cc1cccc(C)c1-c1nc2nc(c1C)OC[C@@H](CC(C)(C)C)N(CC1CCCO1)C(=O)c1cccc(c1)S(=O)(=O)N2 (stereo partly drawn) [Compound 836]

EC50 (Table 12, read-out: HBE EC50): < 1 µM | Emax [6]: > 60%
Compound: Cc1cccc(C)c1-c1cc2nc(n1)NS(=O)(=O)c1cccc(c1)C(=O)N(Cc1cncc(N(C)CCOC(C)C)n1)[C@H](CC(C)(C)C)CO2 [Compound 262]

EC50 (Table 13, read-out: HBE EC50): < 1 µM | Emax [4]: > 60%
Compound: Cc1cccc(C)c1-c1cc2nc(n1)NS(=O)(=O)c1cccc(c1)C(=O)N(Cc1ncc(N3CC(C)(C)OC(C)(C)C3)cn1)[C@H](CC(C)(C)C)CO2 [Compound 1145]

activation at 10 µM [7]: > 60%
Compound: Cc1cccc(C)c1-c1cc2nc(n1)NS(=O)(=O)c1cccc(c1)C(=O)N(Cc1c(C)nn(C(C)(C)C)c1C)[C@H](CC(C)(C)C)CO2 [Compound 482]

EC50 (Table 10, read-out: HBE EC50): < 1 µM | Emax [2]: > 60%
Compound: Cc1cccc(C)c1-c1cc2nc(n1)NS(=O)(=O)c1cccc(c1)C(=O)N(Cc1cc(N3CCOCC3)ccn1)[C@H](CC(C)(C)C)CO2 [Compound 375]

activation at 10 µM [8]: > 600%
Compound: COC(=O)NC1CC2(CC(CN3C(=O)c4cccc(c4)S(=O)(=O)Nc4nc(cc(-c5c(C)cccc5C)n4)OC[C@H]3CC(C)(C)C)C2)C1 (stereo partly drawn) [Compound 1001]

activation at 10 µM [8]: > 600%
Compound: Cc1cccc(C)c1-c1cc2nc(n1)NS(=O)(=O)c1cccc(c1)C(=O)N(Cc1ccc(N3CCC(C(C)(C)O)CC3)cn1)[C@H](CC(C)(C)C)CO2 [Compound 254]

activation at 10 µM [5]: > 60%
Compound: Cc1cccc(C)c1-c1cc2nc(n1)NS(=O)(=O)c1cccc(c1)C(=O)N(Cc1cccc(N(C)CC(C)(C)C3CC3)n1)[C@H](CC(C)(C)C)CO2 [Compound 1421]

activation at 10 µM [9]: > 600%
Compound: Cc1cccc(C)c1-c1cc2nc(n1)NS(=O)(=O)c1cccc(c1)C(=O)N(CC(=O)N(C)CC1CCCC1)[C@H](CC(C)(C)C)CO2 [Compound 229]

activation at 10 µM [7]: > 60%
Compound: Cc1cccc(C)c1-c1cc2nc(n1)NS(=O)(=O)c1cccc(c1)C(=O)N(Cc1ncccc1-c1c[nH]nc1C1CC1)[C@H](CC(C)(C)C)CO2 [Compound 300]

EC50 (Table 13, read-out: HBE EC50): < 1 µM | Emax [4]: > 60%
Compound: Cc1cccc(C)c1-c1cc2nc(n1)NS(=O)(=O)c1cccc(c1)C(=O)N(Cc1cccc(C(=O)N3CCC(C)(C)C3)n1)[C@H](CC(C)(C)C)CO2 [Compound 1138]

Emax [2]: > 60%
Compound: Cc1cccc(C)c1-c1cc2nc(n1)NS(=O)(=O)c1cccc(c1)C(=O)N(Cc1ccc3c(n1)C(C)CCO3)C(CC(C)(C)C)CO2 (stereo not drawn) [Compound 794]

activation at 10 µM [9]: 30 to 60%
Compound: Cc1cccc(C)c1-c1cc2nc(n1)NS(=O)(=O)c1cccc(c1)C(=O)N(Cc1cncc(N3CC(C(=O)O)C(C(C)C)C3)n1)[C@H](CC(C)(C)C)CO2 (stereo partly drawn) [Compound 263]

activation at 10 µM [8]: > 600%
Compound: Cc1cccc(C)c1-c1cc2nc(n1)NS(=O)(=O)c1cccc(c1)C(=O)N(CC1CC3(C1)CC(NC(=O)OC1CC1)C3)[C@H](CC(C)(C)C)CO2 (stereo partly drawn) [Compound 1002]

EC50 (Table 11, read-out: HBE EC50): < 1 µM | Emax [3]: > 60%
Compound: CO[C@@H]1CCN(c2cnc(CN3C(=O)c4cccc(c4)S(=O)(=O)Nc4nc(cc(-c5c(C)cccc5C)n4)OC[C@H]3CC(C)(C)C)nc2)C1 [Compound 623]

From US20240150377A1, “MODULATORS OF CYSTIC FIBROSIS TRANSMEMBRANE CONDUCTANCE REGULATOR” (VERTEX PHARMACEUTICALS INCORPORATED, priority 2020, published 2024)
